Laboratory results published in patent US12303473B1 (priority 2023, dated 2025).
Like-named read-outs stand apart in the source and are kept apart here.

How the values were obtained:
[1] = test system: adult patients with TRD; conditions: for depression rating based on mean PHQ-9 depression scores: "severe" at baseline, HBr after 2 weeks; for side effect: anxiety / side effect: gastrointestinal upset / side effect: insomnia: in vivo
Description: In the regular course of Applicants' general outpatient psychiatry practice, Applicants see many patients who suffer from Major Depressive Disorder (MDD) and may not have responded to two or more oral antidepressant medications. Applicants routinely administer the brief and commonly used Patient Health Questionnaire-9 (PHQ-9) scale before starting a new treatment, two weeks after starting treatment to measure initial response, and periodically thereafter.
Once-daily, XL bupropion HCl received FDA approval for the treatment of MDD in 2003 and for Seasonal Affective Disorder (SAD) in 2006.
The following study protocol was approved by the WCG-IRB institutional ethics committee and conducted in accordance with principles set forth in the Helsinki Declaration. […] The PHQ-9 is a reliable and valid clinical and research tool that measures functionality and depression severity, whereby scores of 5, 10, 15, and 20 correspond to mild, moderate, moderately severe, and severe depression and a 5-point change is considered clinically meaningful. Statistical analysis was performed using a within-subject, 2-tailed t-test with a significance level of p<0.05.

[2] = test system: patients having Major Depressive Disorder who also suffer from Treatment Resistant Depression; assay: Example 2: phase III double-blind active control Treatment Resistant Major Depressive Disorder study (MADRS), sequential HCl then HBr; type: in vivo, human; conditions: N=50
Protocol: A phase III double-blind study is conducted on a subset of patients having Major Depressive Disorder who also suffer from Treatment Resistant Depression. Exclusion criteria for this study are any patients suffering from seizures, known hypersensitivity to bupropion, eating disorders, schizophrenia or bipolar disorder. Inclusion criteria for this study are adult patients ages 18 through 64 who have taken two oral antidepressants of adequate dose and duration in the current episode of Major Depressive Disorder. The study includes a total of fifty patients (N=50). Initially, all patients are given a two-week washout from a previous oral antidepressant or are not currently taking an oral antidepressant. The patients are administered once daily bupropion HCl XL 150 mg, which is flexibly dosed to 300 mg by day 4 and 450 mg by day 11, to the extent required for treatment response and/or as tolerated. The treatment is continued for a total of six weeks. After six weeks, there is a five-day bupropion HCl XL washout. Next, the patients are administered once daily bupropion HBr XL 174 mg, which is flexibly dosed to 348 mg by day 4 and 522 mg by day 11, to the extent required for treatment response and/or as tolerated. This part of the study is continued for a total of six weeks. Measures are assessed based on weekly changes on the Montgomery Asberg Depression Rating Scale (MADRS) from baseline on bupropion HCl compared to bupropion HBr. Also, side effects leading to discontinuation on bupropion HCl compared to bupropion HBr are considered. The primary endpoint of the study is significant change in MADRS by week 6 on bupropion HBr compared to bupropion HCl. A secondary endpoint is statistically significant change in MADRS by week 2 on bupropion HBr compared to bupropion HCl.

[3] = test system: patients having Major Depressive Disorder who also suffer from Treatment Resistant Depression; assay: Example 3: study similar to Example 2 with two arms of 25 patients; type: in vivo, human; conditions: 25 patients per arm
Protocol: A similar study to that of Example 2 is also conducted, except that the 50 patients are broken into two arms—one arm of 25 patients taking bupropion HCl XL and the other arm of 25 patients taking bupropion HBr XL.

[4] = APLENZIN 348 mg once-daily, 10-day dosing; cited from earlier work

| Compound | depression rating based on mean PHQ-9 depression scores ([1]; 30 adult TRD patients) | mean PHQ-9 score on XL bupropion HCl ([1]; 30 adult TRD patients, mean dose 300 mg/day (range 150-450 mg/day), mean duration 88.8 weeks, PHQ-9 range 0-27, baseline 20.9±4.3) | side effect: anxiety ([1]; both, human) | side effect: gastrointestinal upset ([1]; both, human) | side effect: insomnia ([1]; both, human) | side effects leading to discontinuation compared to bupropion HCl [2] | efficacy in TRD (MADRS change) compared to bupropion HCl ([2]; 174-522 mg once daily, six weeks) | speed of effect compared to bupropion HCl ([2]; MADRS by week 2) | results of two-arm study compared to bupropion HCl XL [3] | peak plasma concentration and area under the curve vs bupropion HCl extended-release 300 mg (bioequivalence) [4] | mean PHQ-9 score on XL bupropion HBr ([1]; 30 adult TRD patients, after 2 weeks on mean dose 348 mg/day (range 174-522 mg/day) after direct switch from XL bupropion HCl, t=-8.63, p<0.00001 vs HCl) | change in PHQ-9 questions (1), (3), (4), (5) and (7) on XL bupropion HBr compared to XL bupropion HCl ([1]; all patients in the study of Example 1, each question rated 0 to 3) | side effect: anxiety [1] | side effect: gastrointestinal upset [1] | patient preference over the combination of bupropion HCl plus dextromethorphan ([1]; subgroup of five patients who had previously failed the combination, due to improved antidepressant efficacy) |
| --- | --- | --- | --- | --- | --- | --- | --- | --- | --- | --- | --- | --- | --- | --- | --- |
| CC(NC(C)(C)C)C(=O)c1cccc(Cl)c1.Cl (racemic) [XL bupropion HCl, (±)-1-(3-chlorophenyl)-2-[(1,1-dimethylethyl)amino]-1-propanone hydrochloride] | moderately severe (Scores of 15-19 indicate moderately severe depression) | 15.3±5.3 | 19 patients | 2 patients | 21 patients |  |  |  |  |  |  |  |  |  |  |
| Br.CC(NC(C)(C)C)C(=O)c1cccc(Cl)c1 (centres unmarked) [XL bupropion HBr, bupropion hydrobromide] | mild (Scores of 5-9 indicate mild depression) |  |  |  | 3 patients | fewer side effects leading to discontinuation | more effective | works faster | same as in Example 2 | equivalent | 6.4±5.0 | improving by at least one point | resolved | resolved | All five patients in this subgroup preferred once-daily XL bupropion HBr |
